From patent US10597388B2, “Pyridazinone herbicides” (FMC CORPORATION, priority 2014, dated 2020)
Like-named read-outs stand apart in the source and are kept apart here.

Legend:
[1] = test system: barnyardgrass (Echinochloa crus-galli); assay: Test A greenhouse herbicide test, pre- and postemergence; format: in vivo; details: Echinochloa crus-galli, 240 h, 1000 g ai/ha, 0 to 100 scale
In short: (§1)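 Seeds sown in loam–sand blend got a preemergence directed soil spray of compound in non-phytotoxic solvent with surfactant. Postemergence treatment was given at 2–10 cm, one- to two-leaf stage. After ~10 d in greenhouse, injury was rated visually vs untreated controls, 0 (no effect) to 100 (complete control).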

corn (Zea mays) = assay: as above; format: in vivo; details: Zea mays, 240 h, 1000 g ai/ha, 0 to 100 scale; for plant injury at 1000 g/ha: post-emergence, Postemergence, 0 is no effect, 100 is complete control, read-out: Corn plant response rating; for Corn plant response rating (crop injury, 0 = no effect, 100 = complete kill) at 1000 g/ha: pre-emergence, Preemergence, 100 complete control
In short: as §1

[2] = test system: crabgrass, large (large crabgrass, Digitaria sanguinalis); assay: as above; format: in vivo; details: 240 h, 1000 g ai/ha, 0 to 100 scale
In short: as §1

[3] = test system: foxtail, giant (giant foxtail, Setaria faberii); assay: as above; format: in vivo; details: Setaria faberi, 240 h, 1000 g ai/ha, 0 to 100 scale
In short: as §1

[4] = test system: momingglory (Ipomoea spp.); assay: as above; format: in vivo; details: 240 h, 1000 g ai/ha, 0 to 100 scale
In short: as §1

[5] = test system: pigweed (Amaranthus retroflexus); assay: as above; format: in vivo; details: Amaranthus retroflexus, 240 h, 1000 g ai/ha, 0 to 100 scale
In short: as §1

[6] = test system: velvetleaf (Abutilon theophrasti); assay: as above; format: in vivo; details: 240 h, 1000 g ai/ha, 0 to 100 scale
In short: as §1

[7] = test system: wheat (Triticum aestivum); assay: as above; format: in vivo; details: Triticum aestivum, 240 h, 1000 g ai/ha, 0 to 100 scale
In short: as §1

[8] = test system: barnyardgrass (Echinochloa crus-galli); assay: Test B flooded paddy test; format: in vivo; details: Echinochloa crus-galli, 360 h; 250 g ai/ha, Flood; visual rating on scale of 0 to 100 where 0 is no effect and 100 is complete control; 13 to 15 d after treatment; read-out: Plant response rating, Barnyardgrass
In short: (§2)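 Plants at the 2-leaf stage were flooded to 3 cm above soil, and test compounds were applied directly into the paddy water, which was held at that depth throughout. After 13 to 15 d in a greenhouse, injury was rated visually against untreated controls on a 0–100 scale (0 no effect, 100 complete control).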

[9] = test system: ducksalad (Heteranthera limosa); assay: Test B flooded paddy test; format: in vivo; details: Heteranthera limosa, 360 h; 250 g ai/ha, Flood; visual rating on scale of 0 to 100 where 0 is no effect and 100 is complete control; 13 to 15 d after treatment; read-out: Plant response rating, Ducksalad
In short: as §2

rice (Oryza sativa) = assay: Test B flooded paddy test; format: in vivo; details: Oryza sativa, 360 h; 250 g ai/ha, Flood; visual rating on scale of 0 to 100 where 0 is no effect and 100 is complete control; 13 to 15 d after treatment; read-out: Plant response rating, Rice
In short: as §2

[10] = test system: sedge, umbrella (small-flower umbrella sedge, Cyperus difformis); assay: Test B flooded paddy test; format: in vivo; details: Cyperus difformis, 360 h; 250 g ai/ha, Flood; visual rating on scale of 0 to 100 where 0 is no effect and 100 is complete control; 13 to 15 d after treatment; read-out: Plant response rating, Sedge, Umbrella
In short: as §2

[11] = post-emergence, Postemergence, 0 is no effect, 100 is complete control, read-out: Barnyardgrass plant response rating
[12] = pre-emergence, Preemergence, 0 no effect, 100 complete control, read-out: Plant response rating, Barnyardgrass
[13] = post-emergence, Postemergence, 0 is no effect, 100 is complete control, read-out: Crabgrass, Large plant response rating
[14] = pre-emergence, Preemergence, 0 no effect, 100 complete control, read-out: Plant response rating, Crabgrass, Large
[15] = post-emergence, Postemergence, 0 is no effect, 100 is complete control, read-out: Foxtail, Giant plant response rating
[16] = pre-emergence, Preemergence, 0 no effect, 100 complete control, read-out: Plant response rating, Foxtail, Giant
[17] = post-emergence, Postemergence, 0 is no effect, 100 is complete control, read-out: Morningglory plant response rating
[18] = pre-emergence, Preemergence, 0 no effect, 100 complete control, read-out: Plant response rating, Morningglory
[19] = post-emergence, Postemergence, 0 is no effect, 100 is complete control, read-out: Pigweed plant response rating
[20] = pre-emergence, Preemergence, 0 no effect, 100 complete control, read-out: Plant response rating, Pigweed
[21] = post-emergence, Postemergence, 0 is no effect, 100 is complete control, read-out: Velvetleaf plant response rating
[22] = pre-emergence, Preemergence, 0 no effect, 100 complete control, read-out: Plant response rating, Velvetleaf
[23] = post-emergence, Postemergence, 0 is no effect, 100 is complete control, read-out: Wheat plant response rating
[24] = pre-emergence, Preemergence, 0 no effect, 100 complete control, read-out: Plant response rating, Wheat

Row | SMILES | pest or weed control at 1000 g/ha [1, 11] | pest or weed control at 1000 g/ha [1, 12] | plant injury at 1000 g/ha (corn (Zea mays)) | Corn plant response rating (crop injury, 0 = no effect, 100 = complete kill) at 1000 g/ha (corn (Zea mays)) | pest or weed control at 1000 g/ha [2, 13] | pest or weed control at 1000 g/ha [2, 14] | pest or weed control at 1000 g/ha [3, 15] | pest or weed control at 1000 g/ha [3, 16] | pest or weed control at 1000 g/ha [4, 17] | pest or weed control at 1000 g/ha [4, 18] | pest or weed control at 1000 g/ha [5, 19] | pest or weed control at 1000 g/ha [5, 20] | pest or weed control at 1000 g/ha [6, 21] | pest or weed control at 1000 g/ha [6, 22] | plant injury at 1000 g/ha [7, 23] | plant injury at 1000 g/ha [7, 24] | pest or weed control at 250 g/ha [8] | pest or weed control at 250 g/ha [9] | plant injury at 250 g/ha (rice (Oryza sativa)) | pest or weed control at 250 g/ha [10] | other results
1 | Cc1cc(C)c2c(-c3c(O)c(C)nn(C)c3=O)c(C)sc2c1 [Compound 3, 5-hydroxy-2,6-dimethyl-4-(2,4,6-trimethylbenzo[b]thien-3-yl)-3(2H)-pyridazinone] | 50% | 80% | 0% | 0% | 10% | 80% | 10% | 60% | 90% | 80% | 0% | 0% | 70% | 70% | 0% | 0% | 0% | 20% | 0% | 0% | melting point: 224 to 227 °C
2 | Cc1ccc2oc(C)c(-c3c(O)c(C)nn(C)c3=O)c2c1 [Compound 7, 4-(2,5-dimethyl-3-benzofuranyl)-5-hydroxy-2,6-dimethyl-3(2H)-pyridazinone] | 90% | 100% | 10% | 30% | 50% | 90% | 90% | 90% | 100% | 80% | 100% | 100% | 100% | 80% | 20% | 0% | 20% | 60% | 0% | 60% | –
